Results published in US11111500B2, “Mutated protoporphyrinogen IX oxidase (PPX) genes” (CIBUS US LLC, priority 2010, dated 2021).
Like-named read-outs stand apart in the source and are kept apart here.

Assays:
[1] = Solubility of herbicide in liquid culture selection media; type: physicochemical
Protocol: Liquid culture selection conditions were developed for both sulfentrazone and flumioxazin. Cultures of 1 mL volume were tested with sulfentrazone and flumioxazin concentrations ranging from 0 to 10 mM. The 0 mM samples had 25 μL DMSO (2.5%) to mimic the concentration of DMSO in the samples containing 10 mM herbicide. Each tube was inoculated with 10 μL of an overnight culture of HemG cells complemented with the wildtype PPX plasmid to ensure uniformity. Spectrophotometric readings (OD600) were taken for each sample (1:4 dilution) and a sample of each plated on LB-Chlor-IPTG plates to determine whether the OD600 correlated with the number of viable colonies. A 10% dilution of the overnight culture was plated for the sulfentrazone-treated cells and a 1% dilution for the cells treated with flumioxazin was plated (see results in Tables 8a-f and 9a-d).
Both sulfentrazone and flumioxazin precipitate out in the liquid media, causing it to appear opaque even before inoculating bacteria.

[2] = system: potato protoplasts (protoplast-derived cells); test: Sulfentrazone kill curve with cell suspension and shoot tip-derived protoplasts; type: cell-based; conditions: for Microcallus formation: exposed one month; for # Of calli in 3 beads, # / # Of calli in 3 beads, %: Non treated protoplast + PEG; for # Of calli in 3 beads, # / # Of calli in 3 beads, % / # of calli in beads, # / # of calli in beads, %: one month; for # Of calli in 3 beads, % / # of calli in beads, %: relative to 0.0 μM; for # of calli in beads, # / # of calli in beads, %: Stop-GFP + Correcting GRON protoplasts
Protocol: Herbicide selection experiments were performed to determine the concentration of herbicide necessary to kill protoplast derived microcalli in a defined treatment period. […] The herbicide was suspended in DMSO, with the final concentration of DMSO in the herbicide treatments being 1%. Development of cells was evaluated under the microscope once a week. […]
Therefore, new kill curves were initiated with lower concentrations of 0, 0.5, 0.6, 0.7 and 0.8 μM of sulfentrazone, shown in Table 1.3.
About 200 shoot tips of 2-8 week-old in vitro shoots that have been cultured under a regular day/night regime, or, preferably were kept for two days before protoplast isolation in the dark, shoots may be cut into small pieces with a scalpel in a petri dish with sterile water. After all tips have been cut, the water is replaced with protoplast culture medium, preferably BN (B5 Salts and Vitamins (Phytotechnology Laboratories), glucose 20 g/L, mannitol 70 g/L, alpha naphthalene acetic acid 5 mg/L, additional CaCl2×2H2O 600 mg/L, casein hydrolysate 250 mg/L, cystcine-HCL 10 mg/L, polyvinylpyrrolidone (MW 10,000) 5 g/L. After approximately 1-2 h, the protoplast culture medium is replaced with enzyme solution, for example consisting of medium BN, in which 0.5% (w/v) Cellulase YC and 0.75% (w/v) Maccrozyme R10 (both from Karlan Research Products, Cottonwood, Ariz.), 1 g/L bovine serum albumin, and 1 g/L 2-morpholinoethanesulfonic acid are dissolved. The ratio of the number of shoot tips over the volume of enzyme solution can be between 10 and 16, preferably 13. The dish with shoot tip pieces in enzyme solution is incubated for at 25° C.-30° C., preferably 28° C., in darkness on a shaker set to about 50 rpm. After overnight incubation the protoplast suspension is purified using an iodixanol density gradient (adapted from Optiprep Application Sheet C18; Purification of Intact Plant Protoplasts; Axis-Shield USA, 10 Commerce Way, Norton, Mass. 02776). After the density gradient centrifugation, the band with purified protoplasts is removed together with about 5 mL W5 medium (Frigerio et al., 1998). The protoplast density and yield are determined with a hemocytometer. The protoplasts density is adjusted to 1×10^6/mL in BN medium containing 2 mg/L 2,6-dichlorobenzonitrile (cellulose synthase inhibitor), and the protoplasts are cultured in darkness at 30° C. for about 16 h.
1. Fast growing cell suspensions are used, preferably three days after their last subculture. 1.5 mL settled cell volume is transferred to about 15 ml BN medium, which after 2 h is replaced with enzyme solution. 2. The protoplast purification is followed immediately by the GRON/PEG treatment.
The protoplast suspension is mixed with an equal volume of W5 medium, transferred to a 50 mL centrifuge tube, and centrifuged for 10 min at the lowest setting of a clinical centrifuge (about 50×g). The supernatant is removed and replaced with TM medium (Klaus, S. Markerfreie transplastome Tabakpflanzen (Marker-free transplastomic tobacco plants). PhD Dissertation, 2002, Ludwig-Maximilians-Universitát Múnchen, 109 pp), adjusting the protoplast density to 5×10^6/mL. Aliquots of 100 μL containing 5×10^5 protoplasts each are distributed into 12 mL round bottom centrifuge tubes. GRONs (such as those shown in Table 14) targeted at one or more mutations in one or both of the mitochondrial and plastidal PPX genes are then introduced into the protoplasts using a PEG treatment. To introduce the GRONs into the protoplasts, 12.5 μg GRON dissolved in 25 μL purified water and 125 μL of a polyethylene glycol solution (5 g PEG MW 1500, 638 mg mannitol, 207 mg CaNO3×4H2O and 8.75 mL purified water; pH adjusted to about 9.0) is added. After a 10-30 min incubation on ice, the protoplast-PEG suspension is washed with W5 medium and resuspended in medium BN. The suspension is kept overnight in darkness at room temperature.
One day after the GRON introduction, protoplasts are embedded in calcium alginate. […]

[3] = system: leaf disc explants of in vitro grown potato plants; test: Leaf disk kill curve (callus formation in leaf disc explants); type: cell-based
Protocol: Aimed at establish the concentration of sulfentrazone that will inhibit callus formation in leaf disc explants, leaf discs were punched with a sterile hole punch from 5 weeks old in vitro grown potato plants. The leaf discs were cultured in petri dishes containing solid Haberlach culture medium containing various concentrations of Sulfentrazone in a final concentration of 1% DMSO. Six leaf discs cultured at each herbicide concentration. Plates were sealed with micropore tape and incubated at room temperature (approximately 23° C.). In an initial experiment, 7.8 μM sulfentrazone, the lowest concentration tested in that experiment, was sufficient to stop callus formations and bleach all leaf discs within 20 days. […] Similar leaf disc kill curve experiments were performed using saflufenacil where 0.5 μM of this herbicide was sufficient to inhibit callus formation in almost all leaf discs after 20 days.

C#CCN1C(=O)COc2cc(F)c(N3C(=O)C4=C(CCCC4)C3=O)cc21 [flumioxazin]
solubility in liquid media ([1]; liquid culture selection media, 0 to 10 mM, DMSO 2.5%): deficient solubility

Cc1nn(-c2cc(NS(C)(=O)=O)c(Cl)cc2Cl)c(=O)n1C(F)F [sulfentrazone]
solubility in liquid media [1]: eventually goes into solution | Microcallus formation ([2]; 7.8 μM sulfentrazone): No | Microcallus formation ([2]; 15.6 μM sulfentrazone): No | Microcallus formation ([2]; 31.25 μM sulfentrazone): No | Microcallus formation ([2]; 62.5 μM sulfentrazone): No | # Of calli in 3 beads, # ([2]; 0.5 μM): 45 | # Of calli in 3 beads, % ([2]; 0.5 μM): 30% | # Of calli in 3 beads, # ([2]; 0.6 μM): 8 | # Of calli in 3 beads, % ([2]; 0.6 μM): 6.9% | # Of calli in 3 beads, # ([2]; 0.7 μM): 2 | # Of calli in 3 beads, % ([2]; 0.7 μM): 1.7% | # Of calli in 3 beads, # ([2]; 0.8 μM): 0.0 | # Of calli in 3 beads, % ([2]; 0.8 μM): 0.0% | # of calli in beads, # ([2]; 0.5 μM): 38 | # of calli in beads, % ([2]; 0.5 μM): 30.2% | # of calli in beads, # ([2]; 0.6 μM): 12 | # of calli in beads, % ([2]; 0.6 μM): 9.6% | # of calli in beads, # ([2]; 0.7 μM): 7 | # of calli in beads, % ([2]; 0.7 μM): 5.6% | # of calli in beads, # ([2]; 0.8 μM): 0.0 | # of calli in beads, % ([2]; 0.8 μM): 0.0% | concentration sufficient to kill all protoplast-derived cells ([2]; shoot tip-derived protoplasts and cell suspension): 7.8 µM | concentration sufficient to stop callus formations and bleach all leaf discs within 20 days ([3]; initial experiment, lowest concentration tested, 1% DMSO): 7.8 µM | time after which callus initiated on the leaf veins of some leaf discs ([3]; leaf discs grown on 2.0 μM): 13 days | concentration sufficient to inhibit callus formation in almost all leaf discs after 20 days ([3]; solid Haberlach culture medium, 1% DMSO): 3.0 µM
